Test results taken from patent US20150057335A1, “NOVEL FUSION GENES IDENTIFIED IN LUNG CANCER” (National Cancer Center, priority 2013, published 2015).

Experiments:
[1] = target: TRIM24-BRAF fusion protein (Homo sapiens, UniProt P15056); settings: NIH3T3 cells stably expressing TRIM24-BRAF, serum-starved, treated for 2 hours; FIG. 10C
Description: NIH3T3 cells stably transduced with plasmids expressing EZR-ERBB4 or TRIM24-BRAF cDNA or with empty plasmids were maintained in a serum-free medium overnight, and then treated with DMSO (Sigma) or the indicated inhibitor (dissolved in DMSO) for 2 hours. Whole-cell lysates were subjected to immunoblotting.
Cells were lysed in a RIPA buffer supplemented with Complete Protease and PhosSTOP Phosphatase Inhibitor Cocktail (Roche, Mannheim, Germany). Proteins were subjected to SDS-PAGE, followed by immunoblotting onto polyvinylidene difluoride membranes. The membranes were blocked for one hour with TBS supplemented with 0.1% Tween 20 and 1.0% BSA, and then probed with primary antibodies. After washing with TBS supplemented with 0.1% Tween 20, the membranes were incubated with horseradish peroxidase-conjugated anti-mouse or anti-rabbit secondary antibodies, and then visualized with an enhanced chemiluminescence reagent (Perkin Elmer, Waltham, Mass., USA). Signal intensity was calculated using the LAS3000 imaging system (Quansys Biosciences, West Logan, Utah, USA).

EZR-ERBB4 fusion protein = assay: Constitutive activation of ERBB4 kinase by EZR-ERBB4 fusion and its inhibition (NIH3T3, immunoblotting); format: cell-based, mouse; settings: NIH3T3 cells stably expressing EZR-ERBB4, serum-starved, treated for 2 hours; FIG. 10B
Description: Whole-cell lysates were subjected to immunoblotting.

[2] = system: HER2:HER3 signaling activated by CD74-NRG1 fusion in EFM-19 cells; assay: HER2:HER3 signaling activation by CD74-NRG1 (EFM-19 reporter cells, conditioned medium, immunoblotting); format: cell-based, human; settings: EFM-19 cells treated 30 minutes with conditioned medium from H1299 cells expressing CD74-NRG1; FIG. 10A
Description: To determine whether cells expressing CD74-NRG1 cDNA secreted NRG1 ligands that activate HER2:HER3 intracellular signaling, EFM-19 breast cancer cells which express both the ERRB2/HER2 and ERBB3/HER3 proteins were used as reporter cells, as previously described (Wilson T. R., et al., Cancer Cell., 2011, 20, 158-72). NCI-H1299 cells transiently transfected with CD74-NRG1-expressing plasmids or empty (control) plasmids were washed twice with PBS and serum-starved overnight by incubation in a serum-free medium. After harvesting of the medium, centrifugation was performed at 4° C. for 5 minutes to remove cell debris. […] Then, whole-cell lysates were subjected to SDS-PAGE and immunoblotting. Cells were lysed in a RIPA buffer supplemented with Complete Protease and PhosSTOP Phosphatase Inhibitor Cocktail (Roche, Mannheim, Germany). Proteins were subjected to SDS-PAGE, followed by immunoblotting onto polyvinylidene difluoride membranes. The membranes were blocked for one hour with TBS supplemented with 0.1% Tween 20 and 1.0% BSA, and then probed with primary antibodies. After washing with TBS supplemented with 0.1% Tween 20, the membranes were incubated with horseradish peroxidase-conjugated anti-mouse or anti-rabbit secondary antibodies, and then visualized with an enhanced chemiluminescence reagent (Perkin Elmer, Waltham, Mass., USA). Signal intensity was calculated using the LAS3000 imaging system (Quansys Biosciences, West Logan, Utah, USA).

TRIM24-BRAF fusion protein, sequence (P15056 with tags, fused parts or gaps): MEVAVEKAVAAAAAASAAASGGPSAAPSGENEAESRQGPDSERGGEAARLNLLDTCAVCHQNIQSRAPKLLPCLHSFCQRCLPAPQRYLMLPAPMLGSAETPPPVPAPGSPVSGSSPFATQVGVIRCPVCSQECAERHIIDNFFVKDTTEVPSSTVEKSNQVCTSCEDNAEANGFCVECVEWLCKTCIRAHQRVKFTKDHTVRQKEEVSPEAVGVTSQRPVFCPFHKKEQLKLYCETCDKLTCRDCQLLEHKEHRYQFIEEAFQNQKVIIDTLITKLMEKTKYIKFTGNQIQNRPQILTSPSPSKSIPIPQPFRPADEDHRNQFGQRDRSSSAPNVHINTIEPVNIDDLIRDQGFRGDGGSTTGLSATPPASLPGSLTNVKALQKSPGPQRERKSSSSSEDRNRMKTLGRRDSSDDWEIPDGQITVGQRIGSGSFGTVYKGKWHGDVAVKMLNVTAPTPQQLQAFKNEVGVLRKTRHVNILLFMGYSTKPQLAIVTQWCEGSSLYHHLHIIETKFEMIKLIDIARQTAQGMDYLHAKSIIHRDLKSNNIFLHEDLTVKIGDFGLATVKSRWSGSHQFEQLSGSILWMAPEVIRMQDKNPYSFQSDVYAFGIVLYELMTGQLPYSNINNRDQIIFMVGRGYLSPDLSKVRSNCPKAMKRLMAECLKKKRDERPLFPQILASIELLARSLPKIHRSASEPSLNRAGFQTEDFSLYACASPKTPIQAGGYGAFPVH

| Phosphorylation of ERBB4 (EZR-ERBB4 fusion protein) | Phosphorylation of ERK (EZR-ERBB4 fusion protein) | SMILES | ERK phosphorylation (activation) [1] | Phosphorylation of ERK [2] | Phosphorylation of HER2 (ERBB2) [2] | Phosphorylation of HER3 (ERBB3) [2] |
| --- | --- | --- | --- | --- | --- | --- |
|  |  | N#CC(=C(/N)Sc1ccccc1N)/C(C#N)=C(\N)Sc1ccccc1N [U0126] | suppressed |  |  |  |
| suppressed | suppressed | CS(=O)(=O)CCNCc1ccc(-c2ccc3ncnc(Nc4ccc(OCc5cccc(F)c5)c(Cl)c4)c3c2)o1 [lapatinib] |  | suppressed | suppressed | suppressed |
